Molecular target: T1, Toll-like receptor 8 (Homo sapiens) (UniProt Q9NR97)
T1 sequence (whole entry): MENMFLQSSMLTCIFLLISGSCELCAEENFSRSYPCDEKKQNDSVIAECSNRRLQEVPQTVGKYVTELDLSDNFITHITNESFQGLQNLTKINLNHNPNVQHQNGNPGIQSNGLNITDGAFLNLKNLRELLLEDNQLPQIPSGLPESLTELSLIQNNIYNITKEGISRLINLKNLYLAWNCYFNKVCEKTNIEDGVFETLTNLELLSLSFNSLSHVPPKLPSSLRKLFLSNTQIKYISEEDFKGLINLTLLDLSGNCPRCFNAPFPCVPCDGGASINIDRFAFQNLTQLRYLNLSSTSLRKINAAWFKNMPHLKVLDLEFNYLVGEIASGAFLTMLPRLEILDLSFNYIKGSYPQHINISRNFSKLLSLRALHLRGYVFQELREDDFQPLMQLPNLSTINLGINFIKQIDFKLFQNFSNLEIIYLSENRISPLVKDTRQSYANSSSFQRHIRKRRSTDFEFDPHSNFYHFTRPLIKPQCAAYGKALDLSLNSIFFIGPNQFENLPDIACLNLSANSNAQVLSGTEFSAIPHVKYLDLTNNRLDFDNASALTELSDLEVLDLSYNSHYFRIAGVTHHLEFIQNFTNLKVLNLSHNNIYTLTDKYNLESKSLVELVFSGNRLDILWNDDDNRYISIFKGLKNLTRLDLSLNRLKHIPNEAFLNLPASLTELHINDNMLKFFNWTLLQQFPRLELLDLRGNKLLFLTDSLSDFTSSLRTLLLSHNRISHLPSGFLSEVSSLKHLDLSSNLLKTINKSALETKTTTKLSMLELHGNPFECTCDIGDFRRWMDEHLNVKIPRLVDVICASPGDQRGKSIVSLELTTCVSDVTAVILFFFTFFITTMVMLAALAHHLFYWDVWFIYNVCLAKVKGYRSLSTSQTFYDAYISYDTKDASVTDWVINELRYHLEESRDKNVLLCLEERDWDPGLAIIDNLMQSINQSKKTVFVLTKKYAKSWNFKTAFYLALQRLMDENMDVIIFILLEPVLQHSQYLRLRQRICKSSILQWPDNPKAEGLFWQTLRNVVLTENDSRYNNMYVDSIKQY
Test: Agonist activity at human TLR8 expressed in HEK293 cells assessed as measured after 6 hrs by NF-kappaB luciferase reporter gene assay
Format: cell-based

Point of comparison: `CCCCNc1nc(N)nc(C)c1OCc1ccccc1`, LED 7.5 µM. Against it:
- COc1cnc(N)nc1N[C@H](CCO)CC(C)C — 3.3-fold lower, 2.3 µM
- CCCCNc1nc(N)ncc1OCc1c(C)noc1C — 7.5-fold lower, 1 µM
- COc1cnc(N)nc1NCCCC(F)(F)F — within 1.5-fold, 6.6 µM
- CCC[C@@H](CO)Nc1nc(N)ncc1OC — 30-fold lower, 0.25 µM
- CCCCNc1nc(N)ncc1OCCC — 1.7-fold lower, 4.5 µM
- CCCC[C@@H](CO)Nc1nc(N)ncc1OC — 19-fold lower, 0.39 µM
- CCC[C@H](CO)Nc1nc(N)ncc1OC — within 1.5-fold, 9 µM
- CCCC(C)Nc1nc(N)ncc1OC (racemic) — 2.7-fold lower, 2.8 µM
- CCC[C@@H](CCO)Nc1nc(N)ncc1OC — 5.4-fold lower, 1.4 µM
- CCCCNc1nc(N)ncc1OCc1ccc2ccccc2n1 — 8.4-fold lower, 0.89 µM
- CCCCNc1nc(N)ncc1OCc1cc2ccccn2n1 — 5.8-fold lower, 1.3 µM
- CCCCNc1nc(N)ncc1OCc1cnn(C)c1 — 1.8-fold higher, 13.7 µM
- CCCCCNc1nc(N)ncc1OCC — 2.3-fold lower, 3.2 µM
- CCCCNc1nc(N)ncc1OCc1cnccn1 — 3.3-fold lower, 2.28 µM
- COc1cnc(N)nc1N[C@H](CO)CC(C)C — 2.1-fold higher, 16 µM
- CCCCNc1nc(N)ncc1OCc1nccc2ccccc12 — 54-fold lower, 0.14 µM
- CCCCNc1nc(N)ncc1OCc1nc(C)oc1C — 4.7-fold lower, 1.58 µM
- CCCCNc1nc(N)ncc1OCc1cccnn1 — 9-fold lower, 0.83 µM
- CC[C@H](C)[C@@H](CO)Nc1nc(N)ncc1OC — 11-fold lower, 0.66 µM
- CCCCNc1nc(N)ncc1OCc1nn(C)c2ccccc12 — 42-fold lower, 0.18 µM
- CCCCNc1nc(N)ncc1OC(C)C — 11-fold lower, 0.7 µM
- CCCCNc1nc(N)ncc1OCc1csc(C)n1 — 10-fold lower, 0.74 µM
- CCC(C)[C@H](CCO)Nc1nc(N)ncc1OC (some centres undefined) — 2.9-fold lower, 2.6 µM
- CCCCNc1nc(N)ncc1OCc1cc(C)nn1C — 8.2-fold lower, 0.92 µM
- CCCCNc1nc(N)ncc1OCC — 6.8-fold lower, 1.1 µM
- COc1cnc(N)nc1NCCC1CC1 — 2.8-fold higher, 20.9 µM
- CCCCNc1nc(N)ncc1OCc1ccccc1 — 3.1-fold lower, 2.4 µM
- CCCCNc1nc(N)ncc1OCc1nc2ccccc2s1 — 2.9-fold lower, 2.6 µM
- CC[C@H](C)CNc1nc(N)ncc1OC — higher, > 25 µM
- CCCCNc1nc(N)ncc1OCc1ncco1 — 2.1-fold lower, 3.6 µM
- CCCCNc1nc(N)ncc1OCc1nccc(OC)c1OC — 12-fold lower, 0.6 µM
- CCCCNc1nc(N)ncc1OCc1nc2ccccc2[nH]1 — 12-fold lower, 0.65 µM
- CCCCNc1nc(N)ncc1OCCCc1ccccc1 — within 1.5-fold, 7.9 µM
- C=CCNc1nc(N)ncc1OC — within 1.5-fold, 8.5 µM

Tested on: HEK293
Test: Agonist activity at human TLR7-dLRR2 mutant expressed in HEK293 cells measured after 6 hrs by NF-kappaB luciferase reporter gene assay
Format: cell-based

Work on `CCCCNc1nc(N)ncc1OCC` yielded an LED of 1.6 µM.

Molecular target: T2, Toll-like receptor 7 (Homo sapiens) (UniProt Q9NYK1)
T2 sequence (whole entry): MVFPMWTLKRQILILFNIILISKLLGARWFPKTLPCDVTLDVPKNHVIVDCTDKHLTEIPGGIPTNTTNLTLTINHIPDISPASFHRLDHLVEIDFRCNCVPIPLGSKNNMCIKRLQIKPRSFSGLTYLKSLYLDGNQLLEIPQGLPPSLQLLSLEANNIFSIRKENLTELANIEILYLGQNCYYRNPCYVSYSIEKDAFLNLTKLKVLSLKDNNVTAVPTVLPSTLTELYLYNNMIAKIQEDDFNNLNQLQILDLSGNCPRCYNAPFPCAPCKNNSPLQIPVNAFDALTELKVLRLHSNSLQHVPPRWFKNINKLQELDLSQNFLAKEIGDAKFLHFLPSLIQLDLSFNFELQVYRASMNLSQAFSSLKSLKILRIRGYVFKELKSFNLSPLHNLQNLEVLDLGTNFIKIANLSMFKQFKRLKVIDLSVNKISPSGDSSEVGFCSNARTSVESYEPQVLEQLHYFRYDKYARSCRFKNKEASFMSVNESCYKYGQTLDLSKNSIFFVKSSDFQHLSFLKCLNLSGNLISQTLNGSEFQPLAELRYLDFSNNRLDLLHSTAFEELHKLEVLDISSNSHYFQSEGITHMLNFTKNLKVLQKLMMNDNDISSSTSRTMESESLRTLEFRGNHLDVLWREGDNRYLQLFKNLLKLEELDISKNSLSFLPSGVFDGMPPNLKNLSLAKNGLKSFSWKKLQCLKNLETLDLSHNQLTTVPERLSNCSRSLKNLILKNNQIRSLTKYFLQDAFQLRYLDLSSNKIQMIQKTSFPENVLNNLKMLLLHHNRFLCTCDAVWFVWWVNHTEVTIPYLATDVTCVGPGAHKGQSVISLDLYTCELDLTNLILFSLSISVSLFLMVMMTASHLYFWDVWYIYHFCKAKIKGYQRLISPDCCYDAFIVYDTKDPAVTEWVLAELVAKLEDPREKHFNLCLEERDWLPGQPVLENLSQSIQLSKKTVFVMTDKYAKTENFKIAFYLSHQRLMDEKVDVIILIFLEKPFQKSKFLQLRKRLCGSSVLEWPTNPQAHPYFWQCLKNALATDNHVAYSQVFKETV
Test: Activation of TLR7 in human PBMCs incubated for overnight duration followed by compound-treated cell supernatant conditioned media transfer to HCV1b transfected human HuH7-luc/neo replicon cells assessed as induction of INFalpha-mediated suppression of virus growth by firefly-luciferase reporter gene assay

Point of comparison: `CCCCNc1nc(N)ncc1OCCCc1ccccc1`, LED 0.25 µM. Against it:
- COc1cnc(N)nc1N[C@H](CCO)CC(C)C — 30-fold higher, 7.5 µM
- CCCCNc1nc(N)ncc1OCc1c(C)noc1C — 1.5-fold higher, 0.38 µM
- COc1cnc(N)nc1NCCCC(F)(F)F — 6.4-fold higher, 1.6 µM
- CCC[C@@H](CO)Nc1nc(N)ncc1OC — 1.6-fold higher, 0.4 µM
- CCCCNc1nc(N)ncc1OCCC — 19-fold higher, 4.8 µM
- CCCC[C@@H](CO)Nc1nc(N)ncc1OC — 1.6-fold higher, 0.4 µM
- CCCC(C)Nc1nc(N)ncc1OC (racemic) — 6.8-fold higher, 1.7 µM
- CCC[C@@H](CCO)Nc1nc(N)ncc1OC — 3.2-fold higher, 0.8 µM
- CCCCNc1nc(N)ncc1OCc1ccc2ccccc2n1 — 2.8-fold lower, 0.09 µM
- CCCCNc1nc(N)ncc1OCc1cc2ccccn2n1 — 6.8-fold lower, 0.037 µM
- CCCCNc1nc(N)ncc1OCc1cnccn1 — 1.6-fold lower, 0.16 µM
- COc1cnc(N)nc1N[C@H](CO)CC(C)C — 44-fold higher, 11 µM
- CCCCNc1nc(N)ncc1OCc1nccc2ccccc12 — 83-fold lower, 0.003 µM
- CCCCNc1nc(N)ncc1OCc1cccnn1 — 2.1-fold lower, 0.12 µM
- CC[C@H](C)[C@@H](CO)Nc1nc(N)ncc1OC — 6.8-fold higher, 1.7 µM
- CCCCNc1nc(N)ncc1OCc1nn(C)c2ccccc12 — 23-fold lower, 0.011 µM
- CCCCNc1nc(N)ncc1OC(C)C — 2-fold higher, 0.5 µM
- CCCCNc1nc(N)ncc1OCc1csc(C)n1 — 3.6-fold lower, 0.07 µM
- CCC(C)[C@H](CCO)Nc1nc(N)ncc1OC (some centres undefined) — 8.8-fold higher, 2.2 µM
- CCCCNc1nc(N)ncc1OCc1cc(C)nn1C — 1.6-fold higher, 0.39 µM
- COc1cnc(N)nc1NCCC1CC1 — 27-fold higher, 6.8 µM
- CCCCNc1nc(N)ncc1OCc1ccccc1 — 1.6-fold higher, 0.39 µM
- CCCCNc1nc(N)ncc1OCc1nc2ccccc2s1 — 2.3-fold lower, 0.11 µM
- CC[C@H](C)CNc1nc(N)ncc1OC — higher, > 24 µM
- CCCCNc1nc(N)ncc1OCc1nccc(OC)c1OC — 11-fold lower, 0.022 µM
- CCCCNc1nc(N)ncc1OCc1nc2ccccc2[nH]1 — 21-fold lower, 0.012 µM
- C=CCNc1nc(N)ncc1OC — 25-fold higher, 6.2 µM

Molecular target: T2, Toll-like receptor 7 (Homo sapiens)
Test: Agonist activity at human TLR7 expressed in HEK293 cells measured after 6 hrs by NF-kappaB luciferase reporter gene assay
Format: cell-based

Point of comparison: `CCCC[C@@H](CO)Nc1nc(N)ncc1OC`, LED 8.01 µM. Against it:
- COc1cnc(N)nc1N[C@H](CCO)CC(C)C — within 1.5-fold, 10.8 µM
- CCCCNc1nc(N)ncc1OCc1c(C)noc1C — 2.6-fold lower, 3.1 µM
- COc1cnc(N)nc1NCCCC(F)(F)F — within 1.5-fold, 6.5 µM
- CCC[C@@H](CO)Nc1nc(N)ncc1OC — within 1.5-fold, 8.4 µM
- CCCCNc1nc(N)ncc1OCCC — within 1.5-fold, 6.2 µM
- CCC[C@H](CO)Nc1nc(N)ncc1OC — higher, > 25 µM
- CCCC(C)Nc1nc(N)ncc1OC (racemic) — higher, > 25 µM
- CCC[C@@H](CCO)Nc1nc(N)ncc1OC — within 1.5-fold, 7.3 µM
- CCCCNc1nc(N)ncc1OCc1ccc2ccccc2n1 — 27-fold lower, 0.3 µM
- CCCCNc1nc(N)ncc1OCc1cc2ccccn2n1 — 38-fold lower, 0.21 µM
- CCCCNc1nc(N)ncc1OCc1cnn(C)c1 — within 1.5-fold, 7 µM
- CCCCCNc1nc(N)ncc1OCC — within 1.5-fold, 6 µM
- CCCCNc1nc(N)ncc1OCc1cnccn1 — 16-fold lower, 0.51 µM
- COc1cnc(N)nc1N[C@H](CO)CC(C)C — higher, > 25 µM
- CCCCNc1nc(N)ncc1OCc1nccc2ccccc12 — 1000-fold lower, 0.008 µM
- CCCCNc1nc(N)ncc1OCc1nc(C)oc1C — 17-fold lower, 0.46 µM
- CCCCNc1nc(N)ncc1OCc1cccnn1 — 15-fold lower, 0.52 µM
- CC[C@H](C)[C@@H](CO)Nc1nc(N)ncc1OC — 2.2-fold higher, 17.8 µM
- CCCCNc1nc(N)ncc1OCc1nn(C)c2ccccc12 — 570-fold lower, 0.014 µM
- CCCCNc1nc(N)ncc1OC(C)C — within 1.5-fold, 10 µM
- CCCCNc1nc(N)nc(C)c1OCc1ccccc1 — 2.2-fold higher, 18 µM
- CCCCNc1nc(N)ncc1OCc1csc(C)n1 — 28-fold lower, 0.29 µM
- CCC(C)[C@H](CCO)Nc1nc(N)ncc1OC (some centres undefined) — within 1.5-fold, 10.4 µM
- CCCCNc1nc(N)ncc1OCc1cc(C)nn1C — 11-fold lower, 0.7 µM
- CCCCNc1nc(N)ncc1OCC — 1.7-fold lower, 4.7 µM
- COc1cnc(N)nc1NCCC1CC1 — higher, > 25 µM
- CCCCNc1nc(N)ncc1OCc1ccccc1 — 8.9-fold lower, 0.9 µM
- CCCCNc1nc(N)ncc1OCc1nc2ccccc2s1 — 29-fold lower, 0.28 µM
- CC[C@H](C)CNc1nc(N)ncc1OC — higher, > 25 µM
- CCCCNc1nc(N)ncc1OCc1ncco1 — 2.8-fold lower, 2.87 µM
- CCCCNc1nc(N)ncc1OCc1nccc(OC)c1OC — 62-fold lower, 0.13 µM
- CCCCNc1nc(N)ncc1OCc1nc2ccccc2[nH]1 — 250-fold lower, 0.032 µM
- CCCCNc1nc(N)ncc1OCCCc1ccccc1 — 5.3-fold lower, 1.5 µM
- C=CCNc1nc(N)ncc1OC — higher, > 25 µM

From ChEMBL document CHEMBL4428063, “Novel Pyrimidine Toll-like Receptor 7 and 8 Dual Agonists to Treat Hepatitis B Virus” (J Med Chem, 2016)
